US8076352B2, “Administration of carboline derivatives useful in the treatment of cancer and other diseases” (PTC Therapeutics, Inc., priority 2004, dated 2011)
pEC50: −log10 of the molar value.

Tested on: hypoxia-inducible endogenous VEGF expression in HeLa cells
Experiment: Hypoxia-inducible endogenous VEGF expression, VEGF ELISA of conditioned media (dose-response EC50)
Assay type: cell-based
Settings: HeLa cells under hypoxic conditions
How it was run: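 HeLa cells were cultured 24-48 h under hypoxia (1% O2, 5% CO2, balance N2) with or without compound. Conditioned-media VEGF protein was measured by ELISA against a standard curve. EC50 and CC50 come from percentage-inhibition curves over, e.g., seven concentrations, with maximal inhibition set at 100%.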

SMILES	pEC50
O=[N+](O)c1ccc(C2NCCc3c2[nH]c2ccc(Cl)cc32)cc1 (stereo not drawn) [Compound 185]	6.00 to 6.70

Same assay, conditions: Homo sapiens, HeLa cells under hypoxic conditions

SMILES	pEC50
Clc1ccc2[nH]c3c(c2c1)CCN(Cc1ccccc1)C3c1ccc2c(c1)OCO2 (stereo not drawn) [Compound 176]	6.00 to 6.70
COc1ccc(C2c3[nH]c4ccc(Cl)cc4c3CCN2C(=O)Nc2ccc(F)cc2)cc1 (stereo not drawn) [Compound 179]	6.00 to 6.70
CCOC(=O)N1CCc2c([nH]c3ccc(Cl)cc23)C1c1ccc(-n2ccnc2)cc1 (stereo not drawn) [Compound 180]	6.00 to 6.70
COc1ccc(C2c3[nH]c4ccc(Cl)cc4c3CCN2C(=O)OC(C)Cl)cc1 (stereo not drawn) [Compound 182]	6.00 to 6.70
CCOC(=O)N1CCc2c([nH]c3ccc(Cl)cc23)C1c1ccccc1Cl (stereo not drawn) [Compound 183]	6.00 to 6.70
CC(=O)N1CCc2c([nH]c3ccc(Cl)cc23)C1c1ccc(OCc2ccccc2)cc1 (stereo not drawn) [Compound 184]	6.00 to 6.70
COc1ccc(NC(=O)N2CCc3c([nH]c4ccc(Cl)cc34)C2c2ccc(OC)cc2)cc1 (stereo not drawn) [Compound 186]	6.00 to 6.70
COCC(=O)N1CCc2c([nH]c3ccc(Br)cc23)C1c1ccc(C(C)C)cc1 (stereo not drawn) [Compound 187]	6.00 to 6.70
CCS(=O)(=O)N1CCc2c([nH]c3ccc(Cl)cc23)C1c1ccc(OC)cc1 (stereo not drawn) [Compound 189]	6.00 to 6.70
Clc1ccc(C2NCCc3c2[nH]c2ccc(Cl)cc32)cc1 (stereo not drawn) [Compound 190]	6.00 to 6.70
Cc1ccc(C2NCCc3c2[nH]c2ccc(Cl)cc32)cc1 (stereo not drawn) [Compound 193]	6.00 to 6.70
CCOC(=O)N1CCc2c([nH]c3ccc(F)cc23)C1c1ccc(Br)cc1 (stereo not drawn) [Compound 196]	6.00 to 6.70
Clc1ccc2[nH]c3c(c2c1)CCNC3c1ccccc1Cl (stereo not drawn) [Compound 197]	6.00 to 6.70
Clc1cccc(C2NCCc3c2[nH]c2ccc(Cl)cc32)c1 (stereo not drawn) [Compound 198]	6.00 to 6.70
CC(C)NC(=O)N1CCc2c([nH]c3ccc(Br)cc23)C1c1cccc(Cl)c1 (stereo not drawn) [Compound 199]	6.00 to 6.70
Fc1ccc(C2NCCc3c2[nH]c2ccc(Br)cc32)cc1F (stereo not drawn) [Compound 201]	6.00 to 6.70
COCC(=O)N1CCc2c([nH]c3ccc(Br)cc23)C1c1ccc(OC)cc1 (stereo not drawn) [Compound 204]	6.00 to 6.70
Fc1ccccc1C1NCCc2c1[nH]c1ccc(Cl)cc21 (stereo not drawn) [Compound 205]	6.00 to 6.70
FC(F)(F)c1cccc(C2NCCc3c2[nH]c2ccc(Br)cc32)c1 (stereo not drawn) [Compound 207]	6.00 to 6.70
CCCCCC1c2[nH]c3ccc(Cl)cc3c2CCN1Cc1ccccc1 (stereo not drawn) [Compound 208]	6.00 to 6.70
CCOC(=O)N1CCc2c([nH]c3ccc(F)cc23)C1c1ccc(C)cc1 (stereo not drawn) [Compound 209]	6.00 to 6.70
COc1cccc(C2NCCc3c2[nH]c2ccc(Cl)cc32)c1 (stereo not drawn) [Compound 210]	6.00 to 6.70
CCOC(=O)N1CCc2c([nH]c3ccc(Br)cc23)C1Cc1ccccc1 (stereo not drawn) [Compound 211]	6.00 to 6.70
Clc1ccc2[nH]c3c(c2c1)CCNC3c1ccc(OCc2ccccc2)cc1 (stereo not drawn) [Compound 212]	6.00 to 6.70
Brc1cccc(C2NCCc3c2[nH]c2ccc(Br)cc32)c1 (stereo not drawn) [Compound 213]	6.00 to 6.70
Fc1ccc(C2NCCc3c2[nH]c2ccc(Cl)cc32)cc1F (stereo not drawn) [Compound 215]	6.00 to 6.70
COc1ccc(C2c3[nH]c4ccc(Cl)cc4c3CCN2C(=O)NCCCl)cc1 (stereo not drawn) [Compound 217]	6.00 to 6.70

SMILES	pEC50
COCC(=O)N1CCc2c([nH]c3ccc(Br)cc23)C1c1cccc(Cl)c1 (stereo not drawn) [Compound 218]	6.00 to 6.70
N#Cc1ccc(C2NCCc3c2[nH]c2ccc(Cl)cc32)cc1 (stereo not drawn) [Compound 220]	6.00 to 6.70
CCNC(=O)N1CCc2c([nH]c3ccc(Cl)cc23)C1c1ccc(OCc2ccccc2)cc1 (stereo not drawn) [Compound 221]	6.00 to 6.70
Clc1ccc2[nH]c3c(c2c1)CCNC3c1cc(Br)cc(Br)c1 (stereo not drawn) [Compound 223]	6.00 to 6.70
CS(=O)(=O)N1CCc2c([nH]c3ccc(Cl)cc23)C1c1ccc(OCc2ccccc2)cc1 (stereo not drawn) [Compound 225]	6.00 to 6.70
Clc1ccc2[nH]c3c(c2c1)CCNC3c1ccc2c(c1)OCO2 (stereo not drawn) [Compound 227]	6.00 to 6.70
Clc1ccc2[nH]c3c(c2c1)CCN(Cc1ccco1)C3C1CCCCC1 (stereo not drawn) [Compound 228]	6.00 to 6.70
CCOC(=O)N1CCc2c([nH]c3ccc(F)cc23)C1c1ccc(Cl)cc1 (stereo not drawn) [Compound 229]	< 6.00
COCC(=O)N1CCc2c([nH]c3ccc(Br)cc23)C1c1ccccc1 (stereo not drawn) [Compound 230]	< 6.00
COc1ccc(C2NCCc3c2[nH]c2ccc(Cl)cc32)cc1 (stereo not drawn) [Compound 231]	< 6.00
Brc1ccc2[nH]c3c(c2c1)CCNC3c1ccc(OCc2ccccc2)cc1 (stereo not drawn) [Compound 232]	< 6.00
CC(C)(C)OC(=O)N[C@@H](Cc1ccccc1)C(=O)N1CCc2c([nH]c3ccc(Cl)cc23)C1c1ccccc1 (stereo partly drawn) [Compound 233]	< 6.00
O=c1c(C2NCCc3c2[nH]c2ccc(Cl)cc32)coc2ccccc12 (stereo not drawn) [Compound 234]	< 6.00
CCOC(=O)N1CCc2c([nH]c3ccccc23)C1c1ccc(OC)cc1 (stereo not drawn) [Compound 235]	< 6.00
COCCOCC(=O)N1CCc2c([nH]c3ccc(Br)cc23)C1c1ccc(Cl)cc1 (stereo not drawn) [Compound 238]	< 6.00
O=[N+]([O-])c1cccc(C2NCCc3c2[nH]c2ccc(Cl)cc32)c1 (stereo not drawn) [Compound 239]	< 6.00
CCOC(=O)N1CCc2[nH]c3ccc(Br)cc3c2C1 [Compound 243]	< 6.00
COc1ccc(C2NC(C(=O)N3CCN(C(C)=O)CC3)Cc3c2[nH]c2ccc(Br)cc32)cc1 (stereo not drawn) [Compound 244]	< 6.00
COc1ccc(C2NC(C(=O)NC3CCCCC3)Cc3c2[nH]c2ccc(Br)cc32)cc1 (stereo not drawn) [Compound 245]	< 6.00
COc1ccc(C2NC(C(=O)Nc3ncc(C)s3)Cc3c2[nH]c2ccc(Br)cc32)cc1 (stereo not drawn) [Compound 246]	< 6.00
COc1ccc(C2NC(C(=O)N3CCOCC3)Cc3c2[nH]c2ccc(Br)cc32)cc1 (stereo not drawn) [Compound 247]	< 6.00
CCOC(=O)N1Cc2c([nH]c3ccc(Cl)cc23)C(c2ccccc2)C1 (stereo not drawn) [Compound 250]	< 6.00
Clc1ccc2[nH]c3c(c2c1)CCNC3Cc1ccccc1 (stereo not drawn) [Compound 251]	< 6.00
Brc1ccc2[nH]c3c(c2c1)CCNC3Cc1ccccc1 (stereo not drawn) [Compound 252]	< 6.00
Fc1ccc2[nH]c3c(c2c1)CCNC3c1cccc(Cl)c1 (stereo not drawn) [Compound 253]	< 6.00
Cc1ccc(C2NCCc3c2[nH]c2ccc(F)cc32)cc1 (stereo not drawn) [Compound 255]	< 6.00

The next lines start with the values.

pEC50	SMILES
6.00 to 6.70	COc1ccc(C2c3[nH]c4ccc(Cl)cc4c3CCN2C(=O)NC(C)C)cc1 (stereo not drawn) [Compound 177]
6.00 to 6.70	Fc1ccc(F)c(C2NCCc3c2[nH]c2ccc(Br)cc32)c1 (stereo not drawn) [Compound 178]
6.00 to 6.70	Clc1ccc(C2NCCc3c2[nH]c2ccc(Br)cc32)cc1 (stereo not drawn) [Compound 181]
6.00 to 6.70	COc1ccc(C2c3[nH]c4ccc(Cl)cc4c3CCN2C(=O)NCc2ccccc2)cc1 (stereo not drawn) [Compound 188]
6.00 to 6.70	CCOC(=O)N1CCc2c([nH]c3ccc(F)cc23)C1c1ccc(OC)cc1 (stereo not drawn) [Compound 191]
6.00 to 6.70	COc1ccc(C2c3[nH]c4ccc(Cl)cc4c3CCN2C(=O)O[C@H]2C[C@@H](C)CC[C@@H]2C(C)C)cc1 (stereo partly drawn) [Compound 192]
6.00 to 6.70	Fc1ccc(F)c(C2NCCc3c2[nH]c2ccc(Cl)cc32)c1 (stereo not drawn) [Compound 194]
6.00 to 6.70	Clc1ccc2[nH]c3c(c2c1)CCNC3c1cccc(Br)c1 (stereo not drawn) [Compound 200]
6.00 to 6.70	CC(C)NC(=S)N1CCc2c([nH]c3ccc(Br)cc23)C1c1cccc(Cl)c1 (stereo not drawn) [Compound 202]
6.00 to 6.70	Fc1cccc(C2NCCc3c2[nH]c2ccc(Cl)cc32)c1 (stereo not drawn) [Compound 203]
6.00 to 6.70	CCNC(=S)N1CCc2c([nH]c3ccc(Cl)cc23)C1c1ccc(OCc2ccccc2)cc1 (stereo not drawn) [Compound 206]
6.00 to 6.70	COc1ccc(C2NCCc3c2[nH]c2ccc(Br)cc32)cc1 (stereo not drawn) [Compound 214]
6.00 to 6.70	Clc1ccc2[nH]c3c(c2c1)CCNC3c1ccccc1 (stereo not drawn) [Compound 216]
6.00 to 6.70	Clc1ccc(CC2NCCc3c2[nH]c2ccc(Cl)cc32)c(Cl)c1 (stereo not drawn) [Compound 222]
6.00 to 6.70	CC(C)Oc1ccc(C2NCCc3c2[nH]c2ccc(Cl)cc32)cc1 (stereo not drawn) [Compound 224]
6.00 to 6.70	CCOC(=O)N1CCc2c([nH]c3ccc(Cl)cc23)C1Cc1ccccc1 (stereo not drawn) [Compound 226]
< 6.00	CCOC(=O)N1CCc2c([nH]c3ccc(Cl)cc23)C1CC (stereo not drawn) [Compound 240]
< 6.00	COCCOCC(=O)N1CCc2c([nH]c3ccc(Br)cc23)C1c1ccc(Br)cc1 (stereo not drawn) [Compound 241]
< 6.00	COc1ccc(C2c3[nH]c4ccc(F)cc4c3CCN2C(=S)NC2CCCCC2)cc1 (stereo not drawn) [Compound 242]
< 6.00	Clc1ccc2[nH]c3c(c2c1)CNCC3c1ccccc1 (stereo not drawn) [Compound 248]
< 6.00	CCOC(=O)N1Cc2c([nH]c3ccc(Br)cc23)C(O)C1 (stereo not drawn) [Compound 249]
< 6.00	Fc1ccc2[nH]c3c(c2c1)CCNC3c1ccc(Cl)cc1 (stereo not drawn) [Compound 254]
< 6.00	Fc1ccc2[nH]c3c(c2c1)CCNC3c1ccc(Br)cc1 (stereo not drawn) [Compound 256]
< 6.00	Fc1ccc2[nH]c3c(c2c1)CCNC3c1ccc(Cl)cc1Cl (stereo not drawn) [Compound 257]
